“Also recorded” adds a separate entry of the source.
system: microorganisms; assay: Targeting peptide binding to target microorganisms (Tables 3, 10, 12); conditions: microorganism(s) the targeting peptide binds; binding in aqueous buffers varied with peptide solubility, preferably 1x PBS

Row | Substance | Target(s)
1 | PF-147 (RRPRRRRSGHGQSASAA; Peptide with targeting and/or antimicrobial activity) | S. epidermidis and M. luteus and MRSA
2 | PF-150 (EIQAKGTG; Peptide with targeting and/or antimicrobial activity) | S. epidermidis and MRSA
3 | PF-151 (EEYPARVPLSGEDVTEARRH; Peptide with targeting and/or antimicrobial activity) | S. epidermidis and MRSA and E. faecalis and C. jeikeium
4 | PF-152 (VGYFIWKDSHSRKG; Peptide with targeting and/or antimicrobial activity) | S. epidermidis and C. albicans and MRSA and E. faecalis and C. jeikeium
5 | PF-154 (GIKKSKHPSTDDYVVKTTIDSL; Peptide with targeting and/or antimicrobial activity) | S. mutans
6 | PF-155 (GRYGDDSKERQGRAQ; Peptide with targeting and/or antimicrobial activity) | C. jeikeium
7 | PF-158 (VRLESRPADLPE; Peptide with targeting and/or antimicrobial activity) | S. epidermidis
8 | PF-159 (TMAFVEKAQLRVPVGDDLPV; Peptide with targeting and/or antimicrobial activity) | S. epidermidis
9 | PF-160 (SFHASLTKNEKPIKSTG; Peptide with targeting and/or antimicrobial activity) | S. epidermidis
10 | PF-161 (RGRALASTATTRPARRRR; Peptide with targeting and/or antimicrobial activity) | S. epidermidis; also recorded: M. luteus; also recorded: E. coli; also recorded: C. jejuni
11 | PF-162 (GIRRLHSVENLNREISHRMAGLR; Peptide with targeting and/or antimicrobial activity) | S. epidermidis and MRSA
12 | PF-163 (TSWLRAAERQEIGEPTKTFGEKTTSL; Peptide with targeting and/or antimicrobial activity) | S. epidermidis
13 | PF-165 (GPVSVVASLRRGTTVQRHSQNNHNKGKP; Peptide with targeting and/or antimicrobial activity) | MRSA and C. jejuni
14 | PF-166 (SKAVSRKRSI; Peptide with targeting and/or antimicrobial activity) | E. coli; also recorded: C. jeikeium
15 | PF-169 (APGSAADSPRSRADD; Peptide with targeting and/or antimicrobial activity) | S. epidermidis; also recorded: E. coli; also recorded: C. albicans; also recorded: E. faecalis; also recorded: C. jeikeium
16 | PF-172 (LTGVRRPWRAPWAGTSGWALR; Peptide with targeting and/or antimicrobial activity) | S. epidermidis and M. luteus and E. coli and P. aeruginosa and MRSA and E. faecalis and C. jejuni
17 | PF-174 (RGGDSPARRRPGLAGPGGPG; Peptide with targeting and/or antimicrobial activity) | S. epidermidis; also recorded: P. aeruginosa; also recorded: C. jeikeium
18 | PF-177 (VTSEPGIAHDIRLLPRAAAFR; Peptide with targeting and/or antimicrobial activity) | M. luteus and MRSA and E. faecalis and C. jeikeium
19 | PF-181 (GIAPRRNEWGAVGGR; Peptide with targeting and/or antimicrobial activity) | S. epidermidis and M. luteus and E. coli and MRSA and E. faecalis and C. jeikeium
20 | PF-182 (LPATRDKTRVPASVAGAP; Peptide with targeting and/or antimicrobial activity) | S. epidermidis; also recorded: M. luteus; also recorded: E. coli; also recorded: E. faecalis; also recorded: C. jeikeium
21 | PF-183 (KPGISVENRQ; Peptide with targeting and/or antimicrobial activity) | S. epidermidis and M. luteus and E. coli and C. albicans and MRSA and E. faecalis and C. jeikeium
22 | PF-184 (LIADRHIRA; Peptide with targeting and/or antimicrobial activity) | S. epidermidis and M. luteus and E. coli and P. aeruginosa and C. albicans and MRSA and C. jeikeium
23 | PF-185 (RPAQARQGPGGLIADRHIRA; Peptide with targeting and/or antimicrobial activity) | E. coli; also recorded: P. aeruginosa
24 | PF-187 (EIQKIAKGVSGQVYGPSRQITISKKR; Peptide with targeting and/or antimicrobial activity) | S. epidermidis and M. luteus and E. coli and MRSA
25 | PF-189 (GNLTRSREAARATQ; Peptide with targeting and/or antimicrobial activity) | S. epidermidis and M. luteus and C. albicans and MRSA and E. faecalis and C. jejuni
26 | PF-193 (PPHCPPGHAKKGWC; Peptide with targeting and/or antimicrobial activity) | S. epidermidis and M. luteus and E. coli and MRSA and E. faecalis and C. jejuni

Row | Substance | Target(s)
27 | PF-194 (MKGNKLATAHEQPVKNSAPPL; Peptide with targeting and/or antimicrobial activity) | C. jeikeium
28 | PF-195 (EMAEGSADDRLRKTPRDC; Peptide with targeting and/or antimicrobial activity) | S. epidermidis; also recorded: M. luteus; also recorded: E. faecalis; also recorded: C. jeikeium
29 | PF-197 (CNALLRRGHPPSAL; Peptide with targeting and/or antimicrobial activity) | S. epidermidis; also recorded: M. luteus; also recorded: C. albicans; also recorded: E. faecalis; also recorded: C. jejuni
30 | PF-200 (GIELKSLIMAQIERWRQA; Peptide with targeting and/or antimicrobial activity) | S. epidermidis and M. luteus and MRSA and E. faecalis and C. jeikeium
31 | PF-201 (GCRPASLSDADPDGR; Peptide with targeting and/or antimicrobial activity) | S. epidermidis; also recorded: M. luteus; also recorded: E. coli; also recorded: C. albicans; also recorded: E. faecalis; also recorded: C. jeikeium; also recorded: C. jejuni
32 | PF-202 (ALNRASLRLALGE; Peptide with targeting and/or antimicrobial activity) | S. epidermidis and M. luteus and E. coli and MRSA and E. faecalis and C. jeikeium and C. jejuni
33 | PF-206 (KLRSASKKSLQEKSCGIMPEKPAG; Peptide with targeting and/or antimicrobial activity) | M. luteus; also recorded: C. albicans; also recorded: C. jeikeium; also recorded: C. jejuni
34 | PF-207 (AAGCRDLGSLSSLVTNPS; Peptide with targeting and/or antimicrobial activity) | M. luteus; also recorded: C. jeikeium
35 | PF-210 (EREDGCDAMPLP; Peptide with targeting and/or antimicrobial activity) | S. epidermidis and P. aeruginosa and C. albicans and MRSA and E. faecalis and C. jeikeium and C. jejuni
36 | PF-213 (MTTGVDFIIEKV; Peptide with targeting and/or antimicrobial activity) | S. epidermidis
37 | PF-214 (GHLRVCWVFSASLLTPFRSATLI; Peptide with targeting and/or antimicrobial activity) | S. mutans; also recorded: S. epidermidis; also recorded: M. luteus; also recorded: E. coli; also recorded: P. aeruginosa; also recorded: A. baumannii
38 | PF-216 (ESVDKITEALEEDGFPAKVQ; Peptide with targeting and/or antimicrobial activity) | S. mutans; also recorded: E. coli
39 | PF-217 (DWEFTHKTIPQKK; Peptide with targeting and/or antimicrobial activity) | S. mutans
40 | PF-218 (SETPEKPVGTFFYSIYYKIIL; Peptide with targeting and/or antimicrobial activity) | S. epidermidis; also recorded: M. luteus; also recorded: P. aeruginosa; also recorded: A. baumannii
41 | PF-219 (FLALAVIAGLFKVILIYAAPYLK; Peptide with targeting and/or antimicrobial activity) | S. epidermidis; also recorded: M. luteus; also recorded: P. aeruginosa; also recorded: A. baumannii
42 | PF-221 (VFDNIDINF; Peptide with targeting and/or antimicrobial activity) | S. epidermidis; also recorded: M. luteus; also recorded: P. aeruginosa
43 | PF-223 (VKFCIECQTKLERKRR; Peptide with targeting and/or antimicrobial activity) | S. epidermidis; also recorded: M. luteus; also recorded: A. baumannii
44 | PF-225 (MNCASPEFKKLMELYK; Peptide with targeting and/or antimicrobial activity) | S. epidermidis
45 | PF-228 (NQLGSQAFAQL; Peptide with targeting and/or antimicrobial activity) | S. mutans
46 | PF-229 (DPILIQIGFTRFALRKAEAEKIEIQVEEGVPA; Peptide with targeting and/or antimicrobial activity) | S. epidermidis; also recorded: M. luteus; also recorded: P. aeruginosa; also recorded: A. baumannii
47 | PF-230 (EDKPTNTIQEIKPVKWQ; Peptide with targeting and/or antimicrobial activity) | S. mutans
48 | PF-231 (AVRDFKKSVREEDEAASLNSPRTIDAQVKTSESTSVKS; Peptide with targeting and/or antimicrobial activity) | S. mutans
49 | PF-232 (FDQLYALEREGKLDELLA; Peptide with targeting and/or antimicrobial activity) | S. epidermidis; also recorded: M. luteus
50 | PF-236 (KEIRTATVAELNAKRRLTSAEQALAEVS; Peptide with targeting and/or antimicrobial activity) | S. mutans; also recorded: S. epidermidis; also recorded: E. coli; also recorded: C. albicans; also recorded: S. pneumoniae; also recorded: E. faecalis
51 | PF-237 (YVKPKVGVHE; Peptide with targeting and/or antimicrobial activity) | S. epidermidis

From patent US20110039763A1, “TARGETED ANTIMICROBIAL MOIETIES” (C3 JIAN, INC., priority 2009, published 2011)
